Experiment: Biochemical Assay: Test compounds were placed in a Greiner Bio-One (Monroe, N.C.) 1536-well black solid bottom assay plate. 200 millimolar (mM) Tris HCl, pH 7.4, 100 micromolar (μM) EDTA and 0.01% TWEEN-20™, final concentration, was used as the assay buffer. The LDHA reagent was 2 nanomolar (nM) Human LDHA (Meridian Life Science, Inc., Memphis, Tenn.), final concentration, in assay buffer.

| IC50 | SMILES |
| --- | --- |
| > 57 µM | O=C(O)c1csc(-n2nc(-c3ccccc3)cc2O)n1 |
| < 0.1 µM | NS(=O)(=O)c1ccc(Oc2c(-c3ccccc3)nn(-c3nc(C(=O)O)cs3)c2C2CC2)cc1 |
| < 0.1 µM | N#Cc1c(Cc2ccc(S(N)(=O)=O)cc2)c(-c2ccccc2)nn1-c1nc(C(=O)O)cs1 |
| > 57 µM | O=C(O)c1csc(-n2nc(-c3ccc(F)cc3F)cc2O)n1 |
| > 57 µM | NC(=O)c1ccc(Cc2c(-c3cccc(-c4ccccc4)c3)nn(-c3nc(C(=O)O)cs3)c2O)cc1 |
| < 0.1 µM | Cc1c(Cc2ccc(S(N)(=O)=O)cc2)c(-c2ccccc2)nn1-c1nc(C(=O)O)cs1 |
| < 0.1 µM | NS(=O)(=O)c1ccc(Cc2cn(-c3nc(C(=O)O)cs3)nc2-c2ccc(F)c(F)c2)cc1 |
| > 57 µM | CNS(=O)(=O)c1ccc(Cc2c(-c3cccc(-c4ccccc4)c3)nn(-c3nc(C(=O)O)cs3)c2O)cc1 |
| > 57 µM | NS(=O)(=O)c1ccc(NCc2cn(-c3nc(C(=O)O)cs3)nc2-c2ccccc2)cc1 |
| < 0.1 µM | NS(=O)(=O)c1ccc(Cc2cn(-c3nc(C(=O)O)cs3)nc2-c2ccccc2)cc1 |
| < 0.1 µM | NS(=O)(=O)c1ccc(Cc2c(-c3ccccc3)nn(-c3nc(C(=O)O)cs3)c2-c2ccccc2)cc1 |
| > 57 µM | O=C(O)c1csc(-n2nc(-c3cc(F)cc(F)c3)cc2O)n1 |
| > 57 µM | O=C(O)c1ccc(Cc2c(-c3cccc(-c4ccccc4)c3)nn(-c3nc(C(=O)O)cs3)c2O)cc1 |
| > 57 µM | NC(=O)c1csc(-n2nc(-c3cccc(-c4ccccc4)c3)c(Cc3ccc(S(N)(=O)=O)cc3)c2O)n1 |
| < 0.1 µM | NS(=O)(=O)c1ccc(Oc2cn(-c3nc(C(=O)O)cs3)nc2-c2ccccc2)cc1 |
| > 57 µM | O=C(O)c1csc(-n2nc(-c3ccc(F)c(F)c3)c(Cc3ccccc3)c2O)n1 |
| > 57 µM | O=C(O)c1csc(-n2nc(-c3cccc(-c4ccccc4F)c3)cc2O)n1 |
| < 0.1 µM | Cc1csc(-c2cc(-c3nn(-c4nc(C(=O)O)cs4)c(CC4CC4)c3Cc3ccc(S(N)(=O)=O)c(F)c3)ccc2F)c1 |
| in the range around 29 µM | NS(=O)(=O)c1ccc(Cc2c(C3CCCC3)nn(-c3nc(C(=O)O)cs3)c2-c2ccccc2)cc1 |
| < 0.1 µM | Cc1ccc(-c2cc(-c3nn(-c4nc(C(=O)O)cs4)c(CC4CC4)c3Cc3ccc(S(N)(=O)=O)c(F)c3)ccc2F)o1 |
| > 57 µM | CCOC(=O)c1csc(-n2nc(-c3cccc(-c4ccccc4)c3)c(Cc3ccc(S(N)(=O)=O)cc3F)c2C2CC2)n1 |
| < 0.1 µM | Cc1csc(-c2cc(-c3nn(-c4nc(C(=O)O)cs4)c(CC4CC4)c3Cc3ccc(S(N)(=O)=O)cc3F)ccc2F)c1 |
| > 57 µM | Cn1cc(-c2cc(-c3c(Cc4ccc(S(N)(=O)=O)c(F)c4)c(CC4CC4)nn3-c3nc(C(=O)O)cs3)ccc2F)cn1 |
| < 0.1 µM | Cc1ccc(-c2cc(-c3nn(-c4nc(C(=O)O)cs4)c(CC4CC4)c3Cc3ccc(S(N)(=O)=O)c(F)c3)ccc2F)s1 |
| < 0.1 µM | COc1cccc(-c2cc(-c3nn(-c4nc(C(=O)O)cs4)c(C(F)(F)F)c3Cc3ccc(S(N)(=O)=O)cc3)ccc2F)c1 |
| < 0.1 µM | Cc1ccc(-c2cc(-c3nn(-c4nc(C(=O)O)cs4)c(CC4CC4)c3Cc3ccc(S(N)(=O)=O)cc3F)ccc2F)s1 |
| in the range around 29 µM | NS(=O)(=O)c1ccc(Cc2cn(-c3nc(Br)cs3)nc2-c2ccccc2)cc1 |

| IC50 | SMILES |
| --- | --- |
| in the range around 29 µM | CCOC(=O)c1csc(-n2nc(-c3ccc(F)c(-c4ccc(F)cc4)c3)c(Cc3ccc(S(N)(=O)=O)c(F)c3)c2C2CC2)n1 |
| < 0.1 µM | NS(=O)(=O)c1ccc(Cc2c(-c3ccc(F)c(-c4cccs4)c3)nn(-c3nc(C(=O)O)cs3)c2CC2CC2)cc1F |
| < 0.1 µM | NS(=O)(=O)c1ccc(Cc2c(-c3ccc(F)c(-c4ccc(F)cc4)c3)nn(-c3nc(C(=O)O)cs3)c2C(F)(F)F)cc1 |
| < 0.1 µM | Cc1ccc(-c2cc(-c3nn(-c4nc(C(=O)O)cs4)c(C(F)(F)F)c3Cc3ccc(S(N)(=O)=O)cc3)ccc2F)cc1 |
| > 57 µM | Cc1noc(C)c1-c1cc(-c2c(Cc3ccc(S(N)(=O)=O)cc3F)c(CC3CC3)nn2-c2nc(C(=O)O)cs2)ccc1F |
| in the range around 29 µM | NS(=O)(=O)c1ccc(Cc2c(CC3CC3)nn(-c3nc(C(=O)O)cs3)c2-c2ccc(F)c(-c3cccc(F)c3)c2)cc1 |
| < 0.1 µM | Cc1cnc(-c2cc(-c3nn(-c4nc(C(=O)O)cs4)c(CC4CC4)c3Cc3ccc(S(N)(=O)=O)c(F)c3)ccc2F)s1 |
| > 57 µM | COc1cccc(-c2cc(-c3c(Cc4ccc(S(N)(=O)=O)cc4)c(CC4CC4)nn3-c3nc(C(=O)O)cs3)ccc2F)c1 |
| > 57 µM | Cc1noc(C)c1-c1cc(-c2c(Cc3ccc(S(N)(=O)=O)c(F)c3)c(CC3CC3)nn2-c2nc(C(=O)O)cs2)ccc1F |
| > 57 µM | CCOC(=O)c1csc(-n2nc(-c3ccc(F)c(-c4cccc(OC)c4)c3)c(Cc3ccc(S(N)(=O)=O)c(F)c3)c2C2CC2)n1 |
| > 57 µM | Cc1csc(-c2cc(-c3c(Cc4ccc(S(N)(=O)=O)c(F)c4)c(CC4CC4)nn3-c3nc(C(=O)O)cs3)ccc2F)c1 |
| < 0.1 µM | Cc1noc(C)c1-c1cc(-c2nn(-c3nc(C(=O)O)cs3)c(CC3CC3)c2Cc2ccc(S(N)(=O)=O)cc2F)ccc1F |
| < 0.1 µM | Cn1cc(-c2cc(-c3nn(-c4nc(C(=O)O)cs4)c(CC4CC4)c3Cc3ccc(S(N)(=O)=O)cc3F)ccc2F)cn1 |
| < 0.1 µM | NS(=O)(=O)c1ccc(Cc2c(-c3ccc(F)c(-c4ccc(F)cc4)c3)nn(-c3nc(C(=O)O)cs3)c2C2CC2)cc1F |
| in the range around 29 µM | CCOC(=O)c1csc(-n2nc(-c3ccc(F)c(-c4cccc(F)c4)c3)c(Cc3ccc(S(N)(=O)=O)c(F)c3)c2C2CC2)n1 |
| < 0.1 µM | NS(=O)(=O)c1ccc(Cc2c(-c3ccc(F)c(-c4cccc(F)c4)c3)nn(-c3nc(C(=O)O)cs3)c2C(F)(F)F)cc1 |
| < 0.1 µM | NS(=O)(=O)c1ccc(Cc2c(-c3ccc(F)c(-c4cccc(F)c4)c3)nn(-c3nc(C(=O)O)cs3)c2CC2CC2)cc1 |
| > 57 µM | Cc1csc(-c2cc(-c3c(Cc4ccc(S(N)(=O)=O)cc4F)c(CC4CC4)nn3-c3nc(C(=O)O)cs3)ccc2F)c1 |
| in the range around 29 µM | CCOC(=O)c1csc(-n2nc(-c3ccc(F)c(-c4ccc(C)cc4)c3)c(Cc3ccc(S(N)(=O)=O)c(F)c3)c2C2CC2)n1 |
| < 0.1 µM | COc1cccc(-c2cc(-c3nn(-c4nc(C(=O)O)cs4)c(CC4CC4)c3Cc3ccc(S(N)(=O)=O)cc3)ccc2F)c1 |
| > 57 µM | Cc1ccc(-c2cc(-c3c(Cc4ccc(S(N)(=O)=O)cc4F)c(CC4CC4)nn3-c3nc(C(=O)O)cs3)ccc2F)s1 |
| < 0.1 µM | Cc1ccc(-c2cc(-c3nn(-c4nc(C(=O)O)cs4)c(C4CC4)c3Cc3ccc(S(N)(=O)=O)c(F)c3)ccc2F)cc1 |
| < 0.1 µM | Cc1noc(C)c1-c1cc(-c2nn(-c3nc(C(=O)O)cs3)c(CC3CC3)c2Cc2ccc(S(N)(=O)=O)c(F)c2)ccc1F |
| < 0.1 µM | Cn1cc(-c2cc(-c3nn(-c4nc(C(=O)O)cs4)c(CC4CC4)c3Cc3ccc(S(N)(=O)=O)c(F)c3)ccc2F)cn1 |
| > 57 µM | CCOC(=O)c1csc(-n2nc(-c3ccc(F)c(-c4ccc(C)s4)c3)c(Cc3ccc(S(N)(=O)=O)c(F)c3)c2CC2CC2)n1 |
| < 0.1 µM | Cc1ncc(-c2cc(-c3nn(-c4nc(C(=O)O)cs4)c(CC4CC4)c3Cc3ccc(S(N)(=O)=O)c(F)c3)ccc2F)s1 |
| > 57 µM | Cc1ccc(-c2cc(-c3c(Cc4ccc(S(N)(=O)=O)c(F)c4)c(CC4CC4)nn3-c3nc(C(=O)O)cs3)ccc2F)s1 |

| SMILES | IC50 |
| --- | --- |
| O=C(O)c1csc(-n2nc(-c3ccccc3)cc2C(F)(F)F)n1 | in the range around 29 µM |
